According to patent US20230000870A1, “METHODS OF TREATING CANCER IN BIOMARKER-IDENTIFIED PATIENTS WITH INHIBITORS OF CYCLIN-DEPENDENT KINASE 7 (CDK7)” (Syros Pharmaceuticals, Inc., priority 2019, published 2023):

What was measured:
CDK2/Cyclin E1 complex = CDK2/Cyclin E1 complex (Homo sapiens, UniProt P24941); assay: CDK2 kinase inhibition assay (Caliper/LabChip EZ Reader); format: biochemical; details: CDK2/Cyclin E1 0.5 nM, ATP 2 mM, 35 min at 27° C.
Method: (§1) Compounds of the invention were assayed for inhibition of CDK7, CDK9, CDK12, and CDK2 activity at Biortus Biosciences (Jiangyin, Jiangsu Province, P.R. of China) using kinase assays for each CDK developed with a Caliper/LabChip EZ Reader (Perkin Elmer, Waltham, Mass.).
(§2) Furthermore, the CDK9 inhibition assay used CDK9/Cyclin T1 complex (8 nM) and “5-FAM-CDK9tide” peptide substrate (2 μM, synthesized fluorophore-labeled peptide with the following sequence: 5-FAM-GSRTPMY-NH2 where 5-FAM is defined above and NH2 signifies a C-terminal amide) with 10 mM MgCl2 in the buffer composition listed above. The CDK12 inhibition assay used CDK12 (aa686-1082)/Cyclin K complex (50 nM) and “5-FAM-CDK9tide” (2 μM) as defined above, with 2 mM MgCl2 in the buffer composition above. Additionally, the CDK2 inhibition assay used CDK2/Cyclin E1 complex (0.5 nM) and “5-FAM-CDK7tide” (2 μM) as defined above, with 2 mM MgCl2 in the buffer composition listed above.
(§3) The incubation period at 27° C. for each CDK inhibition assay was chosen such that the fraction of phosphorylated peptide product produced in each assay, relative to the total peptide concentration, was approximately 20% (±5%) for the uninhibited kinase (35 min. for CDK7, 35 min. for CDK2, 3 hr. for CDK12, 15 min. for CDK9).

[1] = biological target: CDK7/Cyclin H/MAT1 complex (Homo sapiens, UniProt P50613); assay: CDK7 kinase inhibition assay (Caliper/LabChip EZ Reader); format: biochemical; details: CDK7/Cyclin H/MAT1 6 nM, ATP 2 mM, 35 min at 27° C.
Method: as §1, §2, §3

CDK9/Cyclin T1 complex = CDK9/Cyclin T1 complex (Homo sapiens, UniProt P50750); assay: CDK9 kinase inhibition assay (Caliper/LabChip EZ Reader); format: biochemical; details: CDK9/Cyclin T1 8 nM, ATP 2 mM, 15 min at 27° C.
Method: as §1, §2, §3

[2] = biological target: T1, CDK12 (aa686-1082)/Cyclin K complex (Homo sapiens, UniProt Q9NYV4); assay: CDK12 kinase inhibition assay (Caliper/LabChip EZ Reader); format: biochemical; details: CDK12 (aa686-1082)/Cyclin K 50 nM, ATP 2 mM, 3 hr at 27° C.
T1 construct: CDK12 (aa686-1082)/Cyclin K complex
Method: as §1, §2, §3

A673 cells = assay: Inhibition of proliferation of A673 cells (CyQUANT, 72 hour); format: cell-based, human; details: read-out: Inhibition of Proliferation of A673 Cells (calculated IC50)
Method: A673 Cells: A673 cells are a cell line derived from human muscle Ewing's sarcoma. Representative compounds of the invention were tested at different concentrations (from 4 μM to […]; 0.5 log serial dilutions) for their ability to inhibit the proliferation of A673 cells. Known CDK inhibitors dinaciclib or N-((1S,3R)-3-((5-chloro-4-(1H-indol-3-yl)pyrimidin-2-yl)amino)cyclohexyl)-5-((E)-4-(dimethylamino)but-2-enamido)picolinamide and triptolide were used as positive controls. Cells were grown in Dulbecco's Modified Eagle's Medium, +10% FBS+1 mM Sodium Pyruvate. The cells were cultured at 37° C. in a humidified chamber in the presence of 5% CO2. Proliferation assays were conducted over a 72 hour time period. CyQUANT® (Life Technologies, Chicago, Ill. USA) was used to assess the anti-proliferative effects of the compounds following manufacturer's directions and utilizing the reagents supplied with the CyQUANT® kit.

T1 sequence (Q9NYV4 686-1082): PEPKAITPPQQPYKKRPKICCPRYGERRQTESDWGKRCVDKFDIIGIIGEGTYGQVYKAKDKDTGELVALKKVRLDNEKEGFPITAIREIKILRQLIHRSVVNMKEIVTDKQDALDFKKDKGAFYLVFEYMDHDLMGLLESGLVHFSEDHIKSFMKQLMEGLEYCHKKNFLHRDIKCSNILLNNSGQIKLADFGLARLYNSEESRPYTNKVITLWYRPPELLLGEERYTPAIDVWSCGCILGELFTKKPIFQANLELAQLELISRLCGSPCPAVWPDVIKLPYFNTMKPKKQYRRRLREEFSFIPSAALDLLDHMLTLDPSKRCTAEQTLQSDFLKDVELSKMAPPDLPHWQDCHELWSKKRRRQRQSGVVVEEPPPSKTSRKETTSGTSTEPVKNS
T1 sequence (O75909 whole entry partner, the tested form may be a part): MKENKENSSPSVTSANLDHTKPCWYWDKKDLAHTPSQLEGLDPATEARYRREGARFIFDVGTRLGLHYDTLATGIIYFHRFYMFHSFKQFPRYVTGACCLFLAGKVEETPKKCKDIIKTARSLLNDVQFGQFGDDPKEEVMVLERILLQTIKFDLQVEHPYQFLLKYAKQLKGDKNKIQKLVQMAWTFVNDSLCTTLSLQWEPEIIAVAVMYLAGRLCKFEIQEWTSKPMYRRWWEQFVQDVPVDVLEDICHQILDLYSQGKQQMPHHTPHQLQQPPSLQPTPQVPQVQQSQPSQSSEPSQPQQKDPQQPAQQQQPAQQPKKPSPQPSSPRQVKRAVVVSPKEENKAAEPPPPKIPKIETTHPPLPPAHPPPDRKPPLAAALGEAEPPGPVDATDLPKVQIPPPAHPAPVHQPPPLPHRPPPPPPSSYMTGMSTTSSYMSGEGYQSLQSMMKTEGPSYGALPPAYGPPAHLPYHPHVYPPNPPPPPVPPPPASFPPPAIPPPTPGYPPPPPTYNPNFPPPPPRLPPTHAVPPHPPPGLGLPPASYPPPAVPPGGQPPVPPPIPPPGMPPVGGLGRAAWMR
CDK9/Cyclin T1 complex, sequence (P50750 whole entry): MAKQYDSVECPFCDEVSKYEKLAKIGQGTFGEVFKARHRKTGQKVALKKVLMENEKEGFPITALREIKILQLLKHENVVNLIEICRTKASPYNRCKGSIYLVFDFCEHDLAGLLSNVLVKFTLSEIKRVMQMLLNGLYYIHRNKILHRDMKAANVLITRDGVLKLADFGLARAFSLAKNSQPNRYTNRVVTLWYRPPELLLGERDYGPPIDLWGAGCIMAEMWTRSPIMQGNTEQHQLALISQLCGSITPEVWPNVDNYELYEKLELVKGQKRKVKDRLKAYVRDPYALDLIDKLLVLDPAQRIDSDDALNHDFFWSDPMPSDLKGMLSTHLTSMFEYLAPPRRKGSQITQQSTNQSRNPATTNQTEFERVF
CDK9/Cyclin T1 complex, sequence (O60563 whole entry partner): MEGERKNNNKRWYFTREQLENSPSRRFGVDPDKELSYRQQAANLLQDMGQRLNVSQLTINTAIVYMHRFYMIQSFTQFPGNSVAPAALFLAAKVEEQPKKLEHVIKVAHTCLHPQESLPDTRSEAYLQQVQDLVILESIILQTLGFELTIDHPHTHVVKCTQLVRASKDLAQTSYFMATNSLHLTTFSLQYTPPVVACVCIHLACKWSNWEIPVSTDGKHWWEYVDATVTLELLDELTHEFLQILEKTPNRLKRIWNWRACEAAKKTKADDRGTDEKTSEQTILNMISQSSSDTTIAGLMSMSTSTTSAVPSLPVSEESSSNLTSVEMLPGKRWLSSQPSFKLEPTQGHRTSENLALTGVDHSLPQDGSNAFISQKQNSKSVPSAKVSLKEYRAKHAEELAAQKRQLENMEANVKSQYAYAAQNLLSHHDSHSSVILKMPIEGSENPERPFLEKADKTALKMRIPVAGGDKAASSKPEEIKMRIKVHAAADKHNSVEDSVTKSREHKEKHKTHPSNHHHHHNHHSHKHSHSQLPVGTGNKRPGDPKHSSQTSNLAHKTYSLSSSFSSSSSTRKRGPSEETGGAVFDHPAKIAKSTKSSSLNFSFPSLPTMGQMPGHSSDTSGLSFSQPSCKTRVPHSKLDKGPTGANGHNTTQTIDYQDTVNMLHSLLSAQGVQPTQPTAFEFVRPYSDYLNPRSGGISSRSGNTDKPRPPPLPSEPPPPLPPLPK
CDK7/Cyclin H/MAT1 complex, sequence (P50613 whole entry): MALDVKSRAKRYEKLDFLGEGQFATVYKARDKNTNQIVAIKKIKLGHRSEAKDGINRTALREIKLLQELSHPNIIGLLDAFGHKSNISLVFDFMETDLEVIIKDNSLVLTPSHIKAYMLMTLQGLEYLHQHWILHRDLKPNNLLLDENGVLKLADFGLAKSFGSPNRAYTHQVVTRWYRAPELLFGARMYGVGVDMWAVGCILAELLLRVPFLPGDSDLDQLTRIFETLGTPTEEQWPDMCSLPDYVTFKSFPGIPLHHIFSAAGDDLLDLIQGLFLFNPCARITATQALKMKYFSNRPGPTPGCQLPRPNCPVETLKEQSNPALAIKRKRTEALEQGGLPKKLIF
CDK7/Cyclin H/MAT1 complex, sequence (P51946 whole entry partner): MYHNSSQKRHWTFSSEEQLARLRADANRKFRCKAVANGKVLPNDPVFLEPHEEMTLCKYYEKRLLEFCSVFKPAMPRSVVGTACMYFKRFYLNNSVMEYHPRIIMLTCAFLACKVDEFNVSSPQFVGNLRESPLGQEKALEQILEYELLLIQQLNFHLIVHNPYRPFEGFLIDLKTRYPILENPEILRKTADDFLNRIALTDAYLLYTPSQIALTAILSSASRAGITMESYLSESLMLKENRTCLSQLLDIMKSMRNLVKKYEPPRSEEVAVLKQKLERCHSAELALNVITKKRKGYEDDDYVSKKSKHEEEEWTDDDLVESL
CDK7/Cyclin H/MAT1 complex, sequence (P51948 whole entry partner): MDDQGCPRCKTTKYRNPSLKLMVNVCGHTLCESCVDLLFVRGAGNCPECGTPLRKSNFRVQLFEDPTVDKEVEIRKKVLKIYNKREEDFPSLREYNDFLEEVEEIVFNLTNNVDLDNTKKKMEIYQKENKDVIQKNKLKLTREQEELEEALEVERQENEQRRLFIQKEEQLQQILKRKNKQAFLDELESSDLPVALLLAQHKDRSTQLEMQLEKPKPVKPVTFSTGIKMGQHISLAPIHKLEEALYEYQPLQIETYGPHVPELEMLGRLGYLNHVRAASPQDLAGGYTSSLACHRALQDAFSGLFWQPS

Structure (SMILES) | IC50 (CDK2/Cyclin E1 complex) | IC50 [1] | IC50 (CDK9/Cyclin T1 complex) | IC50 [2] | IC50 (A673 cells)
Cc1cccc2c(-c3nc(NC4CCCNC4)ncc3C(F)(F)F)c[nH]c12 (centres unmarked) [Compound 124] | 200 to 5000 nM | < 20 nM | 200 to 5000 nM | 20 to 200 nM | < 20 nM
CC1CCNCC1Nc1ncc(Cl)c(-c2c[nH]c3ccccc23)n1 (centres unmarked) [Compound 125] | ≥ 5000 nM | 20 to 200 nM | ≥ 5000 nM | ≥ 5000 nM | 200 to 5000 nM
CC1CCNCC1Nc1ncc(Cl)c(-c2c[nH]c3ccccc23)n1 (centres unmarked) [Compound 126] | 200 to 5000 nM | 20 to 200 nM | 200 to 5000 nM | 200 to 5000 nM | 
CC(C)n1cc(-c2nc(NC3CCCNC3)ncc2Cl)c2ccccc21 (centres unmarked) [Compound 127] | 200 to 5000 nM | 200 to 5000 nM | 200 to 5000 nM | ≥ 5000 nM | 200 to 5000 nM
CCC1(Nc2ncc(Cl)c(-c3c[nH]c4ccccc34)n2)CCCNC1 (centres unmarked) [Compound 128] | ≥ 5000 nM | ≥ 5000 nM | ≥ 5000 nM | ≥ 5000 nM | 
CC1CCC(Nc2ncc(Cl)c(-c3c[nH]c4ccccc34)n2)CN1 (centres unmarked) [Compound 129] |  | 20 to 200 nM |  | 200 to 5000 nM | 20 to 200 nM
Clc1cnc(NC2(c3ccccc3)CCCNC2)nc1-c1c[nH]c2ccccc12 (centres unmarked) [Compound 130] |  | ≥ 5000 nM |  | ≥ 5000 nM | 200 to 5000 nM
FC(F)(F)c1cnc(NC2CCCNC2)nc1-c1c[nH]c2c(-c3ccncc3)cccc12 (centres unmarked) [Compound 162] |  | 20 to 200 nM | 200 to 5000 nM | 200 to 5000 nM | < 20 nM
FC(F)(F)c1cnc(NC2CCCNC2)nc1-c1c[nH]c2c(Br)cccc12 (centres unmarked) [Compound 163] |  | 20 to 200 nM | 200 to 5000 nM | 200 to 5000 nM | 20 to 200 nM
Cn1cc(-c2cccc3c(-c4nc(NC5CCCNC5)ncc4C(F)(F)F)c[nH]c23)cn1 (centres unmarked) [Compound 164] |  | 20 to 200 nM | 200 to 5000 nM | 200 to 5000 nM | < 20 nM
CC1(O)CCC(c2cccc3c(-c4nc(NC5CCCNC5)ncc4C(F)(F)F)c[nH]c23)CC1 (centres unmarked) [Compound 193] | 200 to 5000 nM | 20 to 200 nM | 200 to 5000 nM | 200 to 5000 nM | 
CC1(O)CCN(C(=O)c2ccc3c(-c4nc(NC5CCCNC5)ncc4C(F)(F)F)c[nH]c3c2)C1 (centres unmarked) [Compound 220] | ≥ 5000 nM | < 20 nM | ≥ 5000 nM | 200 to 5000 nM | 
CC(C)C1CCC(Nc2nccc(-c3c[nH]c4ccccc34)n2)CN1 (centres unmarked) [Compound 237] | 200 to 5000 nM | 20 to 200 nM | ≥ 5000 nM | 200 to 5000 nM | 
FC(F)(F)c1cnc(N[C@H]2CCCNC2)nc1-c1c[nH]c2cc(-n3ccnc3)ccc12 [Compound 248] | 200 to 5000 nM | < 20 nM | 200 to 5000 nM | 200 to 5000 nM | 
FC(F)(F)c1cnc(NC2CNCC(c3nnc4ccccn34)C2)nc1-c1c[nH]c2ccccc12 (centres unmarked) [Compound 268] |  |  |  |  | 200 to 5000 nM
CCc1cnc(N[C@H]2CCCNC2)nc1-c1c[nH]c2cc(S(C)(=O)=O)ccc12 [Compound 271] |  |  |  |  | 200 to 5000 nM
CSc1cnc(NC2CCCNC2)nc1-c1c[nH]c2cc(C#N)ccc12 (centres unmarked) [Compound 272] |  |  |  |  | 20 to 200 nM
CCc1cnc(N[C@H]2CCCNC2)nc1-c1c[nH]c2c(S(=O)(=O)O)cccc12 [Compound 362] | ≥ 5000 nM | 20 to 200 nM | ≥ 5000 nM | ≥ 5000 nM | 
CCc1cnc(NC2CCCNC2)nc1-c1c[nH]c2c(S(=O)O)cccc12 (centres unmarked) [Compound 363] | ≥ 5000 nM | 20 to 200 nM | ≥ 5000 nM | ≥ 5000 nM | 
